Reference: patent publication US10323026B2, “Heterocyclic compound” (Takeda Pharmaceutical Company Limited, priority 2016, dated 2019)

Biological target: T1, His-hMAGL (recombinant polyhistidine tagged human MAGL protein) (Homo sapiens, UniProt Q99685)
T1 construct: polyhistidine (His) (N); made in house; host or cells: E. coli BL21(DE3)
T1 sequence (Q99685 1-303): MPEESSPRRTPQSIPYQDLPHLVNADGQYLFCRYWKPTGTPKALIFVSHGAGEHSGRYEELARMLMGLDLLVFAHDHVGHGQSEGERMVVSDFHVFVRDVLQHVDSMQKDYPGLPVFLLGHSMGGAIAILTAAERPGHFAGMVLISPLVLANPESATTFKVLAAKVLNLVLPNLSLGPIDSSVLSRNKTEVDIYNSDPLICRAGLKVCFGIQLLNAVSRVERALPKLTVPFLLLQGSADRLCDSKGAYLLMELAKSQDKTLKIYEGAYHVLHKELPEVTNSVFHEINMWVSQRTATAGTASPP
Experiment: Measurement of MAGL inhibitory activity (RapidFire-mass spectrometry of arachidonic acid produced from 2-arachidonylglycerol)
Assay type: biochemical
Details: test compound 10 μM, His-hMAGL, substrate 2-arachidonylglycerol, 60 min preincubation; for inhibition at 10 µM: read-out: % inhibition (10 μM)
Description: Furthermore, acetonitrile (50 μL) containing 3 μM arachidonic acid-d8 (Cayman Chemical Company) was added and the mixture was stirred.
The amount of arachidonic acid in the obtained enzyme reaction mixture was calculated by measuring by RapidFire-mass spectrometry and correcting by the amount of arachidonic acid-d8. High Throughput online solid phase extraction was performed using RapidFire 300™ system (Agilent Technologies, Inc.). Samples were loaded on SPE C4 cartridge (Agilent Technologies, Inc.) and desalted with 0.2 (v/v) % acetic acid (Wako Pure Chemical Industries, Ltd.) in ultrapure water/acetonitrile (70/30, v/v) at a flow rate of 1.5 mL/min, eluted at a flow rate of 0.5 mL/min with 0.2(v/v) % acetic acid dissolved in acetonitrile/ultrapure water (90/10, v/v), and injected into the mass spectrometry part. The injection needle was washed with ultrapure water (500 millisecond) and acetonitrile (500 millisecond) to minimize carry-over. […] The RapidFire300 system was controlled by RapidFire UI software version 3.6 (Agilent Technologies, Inc.).
The mass spectrometry of the resultant product was performed using API4000™ triple quadrupole mass spectrometer (AB SCIEX) equipped with an electrospray ion source (TurboIon Spray™) in a negative selected reaction monitoring (SRM) mode. The conditions of SRM are shown below. The parameters of the instrument were optimized as follows: capillary temperature 600° C., ion spray voltage −4.5 kV, collision gas 8, curtain gas 15 psi, ion source gas 1 60 psi, ion source gas 2 60 psi. The mass spectrometer was controlled by Analyst™ software version 1.5.1 (AB SCIEX). The peak area integration was analyzed using RapidFire integrator software version 3.6 (Agilent Technologies, Inc.).
MAGL inhibitory rate (%) was calculated according to the following calculation formula. (1-(arachidonic acid production amount of test compound addition group−arachidonic acid production amount of enzyme-free group)÷(arachidonic acid production amount of test compound-free group−arachidonic acid production amount of enzyme-free group))×100

| inhibition at 10 µM [%] | SMILES | further results |
| --- | --- | --- |
| 101 | CC(Oc1c(F)ccc(F)c1F)C1CCN(C(=O)[C@H]2C[C@]3(COC(=O)N3)C2)CC1 (stereo partly shown) [Example 36, (2s,4s)-2-((4-(1-(2,3,6-trifluorophenoxy)ethyl)piperidin-1-yl)carbonyl)-7-oxa-5-azaspiro[3.4]octan-6-one] |  |
| 101 | O=C1N[C@]2(CO1)C[C@H](C(=O)N1CC(COc3cc(Br)c(C(F)(F)F)cc3F)C1)C2 [Example 41, (2s,4s)-2-((3-((5-bromo-2-fluoro-4-(trifluoromethyl)phenoxy)methyl)azetidin-1-yl)carbonyl)-7-oxa-5-azaspiro[3.4]octan-6-one] |  |
| 100 | O=C1N[C@]2(CO1)C[C@H](C(=O)N1CCC(COc3ccc(F)cc3Cl)(C(F)(F)F)CC1)C2 [Example 48, (2s,4s)-2-((4-((2-chloro-4-fluorophenoxy)methyl)-4-(trifluoromethyl)piperidin-1-yl)carbonyl)-7-oxa-5-azaspiro[3.4]octan-6-one] |  |
| 101 | CC1(C2CCN(C(=O)[C@H]3C[C@]4(COC(=O)N4)C3)CC2)Cc2cc(C(F)(F)F)ccc2O1 (stereo partly shown) [Example 53, (2s,4s)-2-((4-(2-methyl-5-(trifluoromethyl)-2,3-dihydro-1-benzofuran-2-yl)piperidin-1-yl)carbonyl)-7-oxa-5-azaspiro[3.4]octan-6-one] |  |
| 100 | CC(Oc1ccc(F)cc1C(F)(F)F)C1CCN(C(=O)[C@H]2C[C@]3(COC(=O)N3)C2)CC1 (stereo partly shown) [Example 59, (2s,4s)-2-((4-(1-(4-fluoro-2-(trifluoromethyl)phenoxy)ethyl)piperidin-1-yl)carbonyl)-7-oxa-5-azaspiro[3.4]octan-6-one] |  |
| 100 | O=C1N[C@]2(CO1)C[C@H](C(=O)N1CCC3(CC1)CC(Oc1ccc(F)cc1Cl)C3)C2 [Example 62, (2s,4s)-2-((2-(2-chloro-4-fluorophenoxy)-7-azaspiro[3.5]non-7-yl)carbonyl)-7-oxa-5-azaspiro[3.4]octan-6-one] |  |
| 100 | CC1(C2CCN(C(=O)[C@H]3C[C@]4(COC(=O)N4)C3)CC2)Cc2ccc(C(F)(F)F)cc2O1 (stereo partly shown) [Example 63, (2s,4s)-2-((4-(2-methyl-6-(trifluoromethyl)-2,3-dihydro-1-benzofuran-2-yl)piperidin-1-yl)carbonyl)-7-oxa-5-azaspiro[3.4]octan-6-one] |  |

More lines, now with the values behind:

| SMILES | inhibition at 10 µM [%] | further results |
| --- | --- | --- |
| CC(Oc1cc(F)c(F)cc1F)C1CCN(C(=O)[C@H]2C[C@]3(COC(=O)N3)C2)CC1 (stereo partly shown) [Example 40, (2s,4s)-2-((4-(1-(2,4,5-trifluorophenoxy)ethyl)piperidin-1-yl)carbonyl)-7-oxa-5-azaspiro[3.4]octan-6-one] | 101 |  |
| CCC1(COc2ccc(F)cc2Cl)CCN(C(=O)[C@H]2C[C@]3(COC(=O)N3)C2)CC1 [Example 44, (2s,4s)-2-((4-((2-chloro-4-fluorophenoxy)methyl)-4-ethylpiperidin-1-yl)carbonyl)-7-oxa-5-azaspiro[3.4]octan-6-one] | 101 |  |
| Cc1ccc(OC(C)C2CCN(C(=O)[C@H]3C[C@]4(COC(=O)N4)C3)CC2)c(F)c1 (stereo partly shown) [Example 45, (2s,4s)-2-((4-(1-(2-fluoro-4-methylphenoxy)ethyl)piperidin-1-yl)carbonyl)-7-oxa-5-azaspiro[3.4]octan-6-one] |  | % inhibition (10 μM): 100% |
| Cc1ccc(OC(C)C2CCN(C(=O)[C@H]3C[C@]4(COC(=O)N4)C3)CC2)c(F)c1 (stereo partly shown) [Example 46, (2s,4s)-2-((4-(1-(2-fluoro-4-methylphenoxy)ethyl)piperidin-1-yl)carbonyl)-7-oxa-5-azaspiro[3.4]octan-6-one] |  | % inhibition (10 μM): 100% |
| CC(Oc1ccc(C2CC2)cc1F)C1CCN(C(=O)[C@H]2C[C@]3(COC(=O)N3)C2)CC1 (stereo partly shown) [Example 47, (2s,4s)-2-((4-(1-(4-cychopropyl-2-fluorophenoxy)ethyl)piperidin-1-yl)carbonyl)-7-oxa-5-azaspiro[3.4]octan-6-one] | 100 |  |
| O=C1N[C@]2(CO1)C[C@H](C(=O)N1CCC(COc3ccc(N4CC(F)C4)cc3Cl)CC1)C2 [Example 49, (2s,4s)-2-((4-((2-chroro-4-(3-fluoroazetidin-1-yl)phenoxy)methyl)piperidin-1-yl)carbonyl)-7-oxa-5-azaspiro[3.4]octan-6-one] | 101 |  |
| O=C1N[C@]2(CO1)C[C@H](C(=O)N1CCC(C(c3ccccc3)c3ccccc3)CC1)C2 [Example 50, (2s,4s)-2-((4-(diphenylmethyl)piperidin-1-yl)carbonyl)-7-oxa-5-azaspiro[3.4]octan-6-one] | 101 |  |
| CC(c1ccccc1)(c1ccccc1)C1CCN(C(=O)[C@H]2C[C@]3(COC(=O)N3)C2)CC1 [Example 51, (2s,4s)-2-((4-(1,1-diphenylethyl)piperidin-1-yl)carbonyl)-7-oxa-5-azaspiro[3.4]octan-6-one] | 101 |  |
| CC1(C(F)(F)c2ccc(F)cc2Cl)CCN(C(=O)[C@H]2C[C@]3(COC(=O)N3)C2)CC1 [Example 52, (2s,4s)-2-((4-((2-chloro-4-fluorophenyl)(difluoro)methyl)-4-methylpiperidin-1-yl)carbonyl)-7-oxa-5-azaspiro[3.4]octan-6-one] | 100 |  |
| CC(Oc1cc(F)c(F)cc1F)C1CCN(C(=O)[C@H]2C[C@]3(COC(=O)N3)C2)CC1 (stereo partly shown) [Example 54, (2s,4s)-2-((4-(1-(2,4,5-trifluorophenoxy)ethyl)piperidin-1-yl)carbonyl)-7-oxa-5-azaspiro[3.4]octan-6-one] |  | % inhibition (10 μM) (10 µM): 101% |
| CC(Oc1cc(F)c(F)cc1F)C1CCN(C(=O)[C@H]2C[C@]3(COC(=O)N3)C2)CC1 (stereo partly shown) [Example 55, (2s,4s)-2-((4-(1-(2,4,5-trifluorophenoxy)ethyl)piperidin-1-yl)carbonyl)-7-oxa-5-azaspiro[3.4]octan-6-one] |  | % inhibition (10 μM) (10 µM): 100% |
| CC(Oc1c(F)ccc(F)c1F)C1CCN(C(=O)[C@H]2C[C@]3(COC(=O)N3)C2)CC1 (stereo partly shown) [Example 56, (2s,4s)-2-((4-(1-(2,3,6-trifluorophenoxy)ethyl)piperidin-1-yl)carbonyl)-7-oxa-5-azaspiro[3.4]octan-6-one] |  | % inhibition (10 μM) (10 µM): 100% |
| CC(Oc1c(F)ccc(F)c1F)C1CCN(C(=O)[C@H]2C[C@]3(COC(=O)N3)C2)CC1 (stereo partly shown) [Example 57, (2s,4s)-2-((4-(1-(2,3,6-trifluorophenoxy)ethyl)piperidin-1-yl)carbonyl)-7-oxa-5-azaspiro[3.4]octan-6-one] |  | % inhibition (10 μM) (10 µM): 100% |
| O=C1N[C@]2(CO1)C[C@H](C(=O)N1CCC(C3(C(F)(F)F)Cc4cc(F)ccc4O3)CC1)C2 (stereo partly shown) [Example 58, (2s,4s)-2-((4-(5-fluoro-2-(trifluoromethyl)-2,3-dihydro-1-benzofuran-2-yl)piperidin-1-yl)carbonyl)-7-oxa-5-azaspiro[3.4]octan-6-one] | 100 |  |
| O=C1N[C@]2(CO1)C[C@H](C(=O)N1CCC(COc3ccc(CCF)cc3F)CC1)C2 [Example 64, (2s,4s)-2-((4-((2-fluoro-4-(2-fluoroethyl)phenoxy)methyl)piperidin-1-yl)carbonyl)-7-oxa-5-azaspiro[3.4]octan-6-one] | 101 |  |
| O=C1N[C@]2(CO1)C[C@H](C(=O)N1CC(COc3cc(C4CC4)c(C(F)(F)F)cc3F)C1)C2 [Example 65, (2s,4s)-2-((3-((5-cyclopropyl-2-fluoro-4-(trifluoromethyl)phenoxy)methyl)azetidin-1-yl)carbonyl)-7-oxa-5-azaspiro[3.4]octan-6-one] | 101 |  |
| CC(Oc1ccc(F)cc1C(F)(F)F)C1CCN(C(=O)[C@H]2C[C@]3(COC(=O)N3)C2)CC1 (stereo partly shown) [Example 66, (2s,4s)-2-((4-(1-(4-fluoro-2-(trifluoromethyl)phenoxy)ethyl)piperidin-1-yl)carbonyl)-7-oxa-5-azaspiro[3.4]octan-6-one] |  | % inhibition (10 μM): 100% |
| CC(Oc1ccc(F)cc1C(F)(F)F)C1CCN(C(=O)[C@H]2C[C@]3(COC(=O)N3)C2)CC1 (stereo partly shown) [Example 67, (2s,4s)-2-((4-(1-(4-fluoro-2-(trifluoromethyl)phenoxy)ethyl)piperidin-1-yl)carbonyl)-7-oxa-5-azaspiro[3.4]octan-6-one] |  | % inhibition (10 μM): 100% |
